Measurements published in article PMC11306024, “Novel metabolite madeirone and neomarinone extracted from Streptomyces aculeoletus as marine antibiofilm and antifouling agents” (Frontiers in Chemistry, 2024).

Columns and labels:
C. marina = experiment: Antibiofilm activity (inhibition of biofilm formation); assay type: cell-based, Cobetia marina DSM 4741; conditions: for Biofilm inhibition, up to (highest over tested concentrations) C. marina: 0.98-31.25 µg/mL tested; for inhibition at 0.98 µg/mL / inhibition at 1.95 µg/mL / inhibition at 3.91 µg/mL / inhibition at 7.81 µg/mL / inhibition at 15.6 µg/mL / inhibition at 31.25 µg/mL: Cobetia marina, 24 h; for inhibition at 15.6 µg/mL: 15.60 µg/mL
Method: (§1) To assess antimicrofouling activity, we selected five marine bacterial species as models: Marinobacter hydrocarbonoclasticus DSM 8798 (ATCC 49840), C. marina DSM 4741, Phaeobacter inhibens DSM 17,395, Pseusooceanicola batsensis DSM 15,984, and Micrococcus luteus DSM 20030 (ATCC 4698) ([Michael et al., 2016]). These strains, sourced from DSMZ (Leibniz Institute DSMZ—German Collection of Microorganisms and Cell Cultures), were cultured in liquid marine broth (Carl Roth GmbH, Karlsruhe, Germany) with agitation at 180 rpm or on agar-supplemented marine broth. Incubation temperatures were set at 28°C for M. hydrocarbonoclasticus and Cobetia marina, 30°C for P. inhibens and P. batsensis, while M. luteus was maintained at 37°C in Brain Heart Infusion broth (BHI, Becton Dickinson, GmbH, Heidelberg, Germany) under similar agitation conditions.
The antibiofilm potential of compounds (1) and (2) against the five marine bacterial species was investigated in 96-well polystyrene flat-bottom microplates (Nunclon Delta Surface, Thermo Scientific, Roskilde, Denmark), as described previously ([Bauermeister et al., 2019]; [Pereira et al., 2020]). In the initial screening, bacterial overnight cultures were diluted to an OD600 of 0.2 and incubated statically at appropriate temperatures. The cultures were tested at 31.25, 15.60, 7.81, 3.91, 1.95, 0.98 μg/mL concentrations (2-fold serial dilutions) of compounds (1) and (2), solubilized in DMSO, or left untreated. After 24 h (M. hydrocarbonoclasticus, C. marina) or 48 h (P. batsensis, P. inhibens, M. luteus) incubation, OD600 was measured. The planktonic cells and media were discarded, and the wells were washed twice with deionized water. Biofilms were fixed, stained, and quantified by measuring the OD600 after solubilization with acetic acid. Biofilm inhibition percentages were calculated relative to untreated bacterial species, using DMSO as a negative control and CuSO4 (0.16 μg/mL), as a positive control. All assays were performed in triplicate, and the results represent the mean and standard error of the mean (SEM). Statistical analysis was conducted using GraphPad Prism 8.0.2, employing one-way ANOVA followed by Dunnett’s multiple comparisons test against the negative control.

M. luteus = experiment: Antibacterial activity (growth inhibition, OD600); assay type: cell-based, Micrococcus luteus DSM 20030; conditions: 48 h
Method: as §1
The antibacterial efficacy of compounds (1) and (2) was assessed in 96-well polystyrene flat-bottom microplates (Nunclon Delta Surface, Thermo Scientific, Roskilde, Denmark) following established procedures ([Bauermeister et al., 2019]). In the initial screening, bacterial overnight cultures were diluted to an optical density (OD600nm) of 0.2 and incubated statically at appropriate temperatures. The cultures were treated with the following final concentrations per well: 31.25, 15.60, 7.81, 3.91, 1.95, and 0.98 μg/mL (2-fold serial dilutions) of the compounds, solubilized in DMSO, or left untreated. After 24 h (M. hydrocarbonoclasticus, C. marina) or 48 h (P. batsensis, P. inhibens, M. luteus) incubation, optical density at 600 nm (OD600) was measured using a Molecular Devices Spectra Max 190. Growth inhibition percentages were calculated relatively to untreated bacterial species, using DMSO as a negative control. CuSO4 (0.16 μg/mL), a recognized antifouling agent, was used as positive control. All assays were conducted in triplicate, and the results represent the mean and standard error of the mean (SEM). Statistical analysis was carried out using GraphPad Prism 8.0.2 (San Diego, CA, United States), employing one-way ANOVA followed by Dunnett’s multiple comparisons test against the negative control.

[1] = system: Pseudokirchneriella subcapitata; experiment: Algal growth inhibition test (OECD 201); assay type: cell-based
Method: The in vivo evaluation of compounds (1) and (2) for acute toxicity was performed towards marine bacterium Aliivibrio fischeri, and planktonic crustacean Daphnia magna. The chronic ecotoxicity tests were evaluated using algae Pseudokirchneriella subcapitata and Phaeodactylum tricornutum.
Freshwater and marine algal growth inhibition was assessed using P. subcapitata and P. tricornutum according to OECD Guideline 201 procedures (“Alga, Growth Inhibition Test”), ISO-8692 (“Water quality–Fresh water algal growth inhibition test with unicellular green algae”) and ISO-10253. Briefly, the algae cells were de-immobilized from algal beads using Matrix dissolving medium (Microbiotests), according to the manufacturer’s instructions, and grown in flasks containing algal culturing medium which was prepared following the OECD Guideline 201 and ISO-8692. Flasks with algae were kept for 7 days under light with orbital agitation. When the algae culture had sufficient cells, as verified by the optical density at 670 nm, these were tested at an initial cell density of 1 × 10^6 cells/mL in algal culturing medium. Madeirone (1) and neomarinone (2) were dissolved in DMSO and tested at the concentrations of 100, 50, 25, 12.5, 6.25, 3.13, and 1.56 μg/mL. The algae were cultured in microplates in triplicate and were kept for 4 days under light with orbital agitation. […] Each experiment was performed in triplicate and the results of two independent experiments with <10% SD are presented. Growth inhibition calculations were performed using cell numbers (biomass), as determined by a calibration line. Potassium dichromate (K2Cr2O7) was used as a positive control.

Structure (SMILES): CC1=CCC[C@@H](C)[C@]1(C)CC[C@@]1(C)c2c(O)cc3c(c2O[C@@H]1C)C(=O)C=C(CO)C3=O (relative stereo) [compound 1, madeirone]
- Biofilm inhibition, up to (highest over tested concentrations) C. marina (C. marina): up to 40%
- inhibition at 0.98 µg/mL (C. marina): 28.6 ± 23.2%
- inhibition at 1.95 µg/mL (C. marina): 31.6 ± 15.3%
- inhibition at 3.91 µg/mL (C. marina): 36.3 ± 6.4%
- inhibition at 7.81 µg/mL (C. marina): 39.2 ± 5.4%
- inhibition at 15.6 µg/mL (C. marina): 41.7 ± 10%
- inhibition at 31.25 µg/mL (C. marina): 31 ± 9.6%
- Growth inhibition (%) M. luteus (M. luteus; 0.98 µg/mL): N.I.
- Growth inhibition (%) M. luteus (M. luteus; 1.95 µg/mL): N.I.
- Growth inhibition (%) M. luteus (M. luteus; 3.91 µg/mL): N.I.
- Growth inhibition (%) M. luteus (M. luteus; 7.81 µg/mL): N.I.
- Growth inhibition (%) M. luteus (M. luteus; 15.60 µg/mL): N.I.
- inhibition at 15.6 µg/mL (M. luteus; Micrococcus luteus, 15.60 µg/mL): 9.2%
- inhibition at 31.25 µg/mL (M. luteus; Micrococcus luteus, 31.25 µg/mL): 20 ± 0.5%
- Inhibition (%) P. subcapitata (growth) ([1]; 25 µg/mL): 9.1%
- Inhibition (%) P. subcapitata (growth) ([1]; 50 µg/mL): 27.3%
- Inhibition (%) P. subcapitata (growth) ([1]; 100 µg/mL): 52.8%

Structure (SMILES): CC1=CCC[C@@H](C)[C@]1(C)CC[C@@]1(C)c2c(O)cc3c(c2O[C@@H]1C)C(=O)C(C)=C(O)C3=O [compound 2, neomarinone]
- Biofilm inhibition, up to (highest over tested concentrations) C. marina (C. marina): ≤ 46%
- inhibition at 0.98 µg/mL (C. marina): 26.5 ± 3.8%
- inhibition at 1.95 µg/mL (C. marina): 24.5 ± 3%
- inhibition at 3.91 µg/mL (C. marina): 26.9 ± 3.3%
- inhibition at 7.81 µg/mL (C. marina): 34.4 ± 7.4%
- inhibition at 15.6 µg/mL (C. marina): 42.6 ± 6.3%
- inhibition at 31.25 µg/mL (C. marina): 45.8 ± 2.9%
- Growth inhibition (%) M. luteus (M. luteus; 15.60 µg/mL): N.I.
- Growth inhibition (%) M. luteus (M. luteus; 31.25 µg/mL): N.I.
- inhibition at 0.98 µg/mL (M. luteus; Micrococcus luteus, 0.98 µg/mL): 1.8 ± 0.4%
- inhibition at 1.95 µg/mL (M. luteus; Micrococcus luteus, 1.95 µg/mL): 3.8 ± 1.7%
- inhibition at 3.91 µg/mL (M. luteus; Micrococcus luteus, 3.91 µg/mL): 9 ± 0.9%
- inhibition at 7.81 µg/mL (M. luteus; Micrococcus luteus, 7.81 µg/mL): 6.8 ± 1%
- Inhibition (%) P. subcapitata (growth) ([1]; 50 µg/mL): 9.7%
- Inhibition (%) P. subcapitata (growth) ([1]; 100 µg/mL): 26.2%
